Results on one compound are retold here after US20050019426A1, “Use of an aqueous or hydroalcoholic extract from bauhinia for the preparation of a composition” (priority 2003, published 2005).

“And” between values parts separate entries of the source, which are not always exact repeats. Equal entries are not always repeated.

This experiment relates to non-enzymatic incorporation of glucose into proteins (glycation) in human dermal fibroblasts (NDHF Pool PF2). Kind of experiment: Non-enzymatic incorporation of glucose into proteins (glycation) in fibroblasts (Example 5). Type of experiment: cell-based. The note with it: 1 mg/ml, 15 days. How it is done: Material: • human dermal fibroblasts (NDHF Pool PF2) • culture medium: DMEM, 2 mM glutamine, 50 Ul/ml of penicillin, 50 μg/ml of streptomycin, 10% foetal calf serum (Life Technologies) • dry extract of Bauhinia forficata according to Example 4 (aqueous extraction), dissolved in sterile PBS • final concentrations tested: 0.3 mg/ml, 0.1 mg/ml, 0.03 mg/ml • reference: aminoguanidine 1 mg/ml
Human dermal fibroblasts are cultivated to confluence in cell culture medium (see above) in 25 cm^2 plates at 37° C. and 5% CO2. Collagen synthesis is stimulated by cultivation of the cells in the presence of vitamin C (final concentration: 20 μg/ml) for 96 hours. The cells are washed with PBS and lysed by serial freezing/thawing. The cells are treated with aqueous extract of Bauhinia forficata or aminoguanidine (and control: PBS) and labelled with 20 μCi/ml D-[5-^3H]-glucose (19 Ci/mmol), 703 Gbq/mmol) in the presence of 0.1 mg/ml of glucose. The treatment and labelling are carried out without interruption for 15 days at 37° C. and 5% CO2. At the end of the incubation, proteins of the extracellular matrix (principally collagen) are extracted by buffer (TRIS 50 mM, 4M guanidine, 5 mM EDTA, pH 8.0, 30 min). The total protein is precipitated by 20% (v/v) trichloroacetic acid, 0.66 mg/ml of albumin. The precipitates are recovered by filtration from a Skatron collector and washed copiously, firstly in 3% trichloroacetic acid, then with 70% ethanol. The glucose covalently bonded to the fibres of the extracellular matrix is finally measured by scintillation.

For the compound `N=C(N)NN` [Aminoguanidine, aminoguanidine], the “reduction of glucose incorporation” value was 85%. The Mean cpm (n=3) is 3701 cpm. Also, the “cpm (glucose incorporated into proteins)” value (single replicates) is 2859 cpm and 3434 cpm and 4809 cpm. Moreover, the activity at 1000 µg/mL (Homo sapiens, Fibroblast, 360 h, read-out: % of control (glucose incorporation)) stood at 15%.
